Data as given in the SangsterLogP compilation.

Assay: method code SF-AS, from DOI: 10.1021/jm00294a001, PMID: 5116225

Row | SMILES | logP
1 | C=C1C(=O)O[C@@H]2/C=C(/C)C[C@H](O)/C=C(/C)CC[C@@H]12 | 1.23
2 | C=C1C(=O)OC2C1CCC(C)C1(O)C=CC(=O)C21C (centres undefined) | 0.77
3 | C=C1C(=O)O[C@@H]2[C@H]1CC[C@H](C)[C@@H]1C[C@@H](O)C(=O)[C@@]21C | 0.66
4 | C=C1C(=O)OC2C=C(C)C3(O)C=CC(C)(CC(OC(=O)C(=CC)COC(C)=O)C12)O3 (centres undefined) | 1.19
5 | C=C1C(=O)OC2C1CCC(C)C1C=CC(=O)C12C (centres undefined) | 1.03
6 | C=CC12COC(=O)C(=C)C1C1OC(=O)C(=C)C1C(OC(C)=O)C2 (centres undefined) | 0.79
7 | C=C1C(=O)OC2C1C(OC(=O)C(C)=CC)CC(=C)C1C(O)C3OC3(C)C21O (centres undefined) | 1.69
8 | C=C1C(=O)OC2C1C(OC(=O)C(C)=CC)CC(O)(CCl)C1C(OC(C)=O)C=C(C)C21O (centres undefined) | 1.42
9 | C=C1C(=O)O[C@H]2[C@H]1[C@@H](OC(=O)C=C(C)C)CC1=C[C@@H](C[C@@]3(C)O[C@H]23)OC1=O | 1.05
10 | C=C1C(=O)O[C@H]2C[C@@H](C)[C@@H]3C=CC(=O)[C@@]3(C)C[C@H]12 | 1.17
11 | C=C[C@@]12COC(=O)C(=C)[C@@H]1[C@H]1OC(=O)C(=C)[C@@H]1[C@@H](O)C2 | 0.31
12 | C=CC12COC(=O)C(=C)C1C(OC(C)=O)C1C(=C)C(=O)OC1C2 (centres undefined) | 0.25
13 | C=C1C(=O)OC2C=C(C)C3C(OC(C)=O)CC(O)C3CC12 (centres undefined) | 1.09
14 | C=C1C(=O)OC2C1C(O)CC(C)C1CCC(=O)C12C (centres undefined) | 0.23
15 | C=C1C(=O)OC2CC(C)=CCC(OC(C)=O)C(C)=CC(OC(C)=O)C12 (centres undefined) | 1.14
16 | C=C1C(=O)OC2C=C(C)C(O)CC=C(C)CCC12 (centres undefined) | 1.4
17 | C=C1C(=O)O[C@@H]2C[C@@H](C)[C@@H]3C=CC(=O)[C@@]3(C)[C@@H](O)[C@H]12 | 0.87
18 | C=C[C@@]12COC(=O)C(=C)[C@@H]1[C@H]1OC(=O)C(=C)[C@@H]1[C@@H](OC(=O)C(=C)C)C2 | 1.56
19 | C=C1C(=O)O[C@H]2[C@H]1[C@H](OC(=O)/C(C)=C\C)C[C@]1(CO1)[C@@H]1[C@H](OC(C)=O)C=C(C)[C@]21O | 0.76
20 | C=C1C(=O)OC2C=C(C)C(OC(C)=O)CC(O)C(C)=CC(OC(=O)C(C)=CC)C12 (centres undefined) | 1.16
21 | C=C(C)C(=O)O[C@H]1CC2=C[C@@H](C[C@@]3(C)O[C@@H]3[C@H]3OC(=O)C(=C)[C@@H]31)OC2=O | 0.69
22 | C=CC12COC(=O)C(=C)C1C(O)C1C(=C)C(=O)OC1C2 (centres undefined) | -0.14
23 | C=C1C(=O)O[C@H]2CC3=C[C@@H](C[C@@]4(C)O[C@@H]4[C@@H](O)[C@H]12)OC3=O | -0.64
24 | C=C1C(=O)O[C@@H]2[C@H]1CC[C@H](C)[C@]1(O)CCC(=O)[C@@]21C | 0.83
